Results: patent US20240150335A1, “FUSED RING DERIVATIVES CONTAINING 1,4-OXAZEPANE” (MEDSHINE DISCOVERY INC., priority 2021, published 2024)

Key:
[1] = biological target: DPP1 of U937 cells (Homo sapiens (Human), UniProt P53634); assay: Activity test of inhibiting DPP1 in U937 cells; type: cell-based; conditions: Gly-Phe-AFC probe, read-out: IC50, inhibitory activity on DPP1 of U937 cells
Procedure: Experimental Example 2: Activity Test of Inhibiting DPP1 in U937 Cells
Experimental Materials: • 1) Experimental reagents and consumables
The cell plate was placed in a carbon dioxide incubator for 1 day; • (3) after incubation for 1 hour, 100 μM Gly-Phe-AFC probe solution was added thereto, that is, 60 mM Gly-Phe-AFC probe stock solution was diluted with culture medium to 500 μM working solution; the working solution in 10 μL per well was transferred into the cell plate, and the cell plate was incubated in a carbon dioxide incubator for 1 hour;
3) the plate was read, and the data were analyzed: • (1) plate reading: after the cell incubation was completed, the cell plate was taken out, and the plate was read on Victor Nivo.
Using the equation (Sample−Min)/(Max−Min)×100% to convert the raw data into inhibition rate, the IC50 value might be obtained by curve fitting with four parameters (obtained by “log (inhibitor) vs. response—Variable slope” mode in GraphPad Prism).

[2] = biological target: Recombinant human cathepsin C/DPP1; assay: Inhibition effect test of DPP1 enzyme activity; type: biochemical; conditions: recombinant human cathepsin C/DPP1, Gly-Arg-AMC substrate 12.5 μM, 25° C. 60 minutes; read-out: IC50, inhibitory activity on DPP1 enzyme
Procedure: Experimental Example 1: Inhibition Effect Test of DPP1 Enzyme Activity
Recombinant human cathepsin C/DPP1 was purchased from R&D Systems;
Recombinant human cathepsin L (rhCathepsin L) was purchased from R&D Systems;
Gly-Arg-AMC (hydrochloride) was purchased from CAYMAN CHEMICAL COMPANY.
1× activation buffer: 5 mM DTT 0.01% (V/V) Triton X-100 (preparation for current use);
1× assay buffer: 50 mM NaCl 5 mM DTT 0.01% (V/V) Triton X-100 (preparation for current use);
1× activation buffer was used to dilute recombinant human cathepsin C/DPP1 enzyme and recombinant human cathepsin L (rhCathepsin L) enzyme to concentrations of 2 ng/μL and 0.4 ng/μL, respectively; equal volume of two working solutions of enzyme was taken, mixed well and incubated at 25° C. for 60 minutes;
the compounds to be tested were 5-fold diluted with a multi-channel pipette to the 8th concentration, i.e., diluted from 1 mM to 12.8 nM. Then 1× experimental buffer was used to dilute each compound to be tested by gradient into a 4% DMSO working solution. The working solution was added to corresponding wells for 5 μL/well, and duplicate experiment was set. The mixture was centrifuged at 1000 rpm for 1 minute;
5 μL/well of the enzyme mixture after incubation was taken and added to the white microwell plate. At this time, the amount of DPP1 enzyme in each well was 5 ng; 1× experimental buffer in 5 μL/well was added to the blank control well;
Gly-Arg-AMC (hydrochloride) was diluted to 25 μM with 1× assay buffer. The diluted mixture in 10 μL/well was added to a white microwell plate. The substrate concentration was 12.5 μM at this time, and the microplate was centrifuged in a centrifuge at 1000 rpm for 1 minute. […] After centrifugation, the microplate was covered with membrane and incubated at 25° C. for 60 minutes;
after incubation, fluorescence detection was performed using a multi-label analyzer with an excitation wavelength of 360 nm and an emission wavelength of 460 nm.
Using the equation (Sample−Min)/(Max−Min)×100% to convert the raw data into enzyme activity, the IC50 value might be obtained by curve fitting with four parameters (obtained by “log (inhibitor) vs. response—Variable slope” mode in GraphPad Prism).
Max: Contains recombinant human cathepsin C/DPP1, recombinant human cathepsin L (rhCathepsin L), and Gly-Arg-AMC (hydrochloride)
Min: No recombinant human cathepsin C/DPP1 and recombinant human cathepsin L (rhCathepsin L)

DPP1 of U937 cells, sequence (P53634 25-134): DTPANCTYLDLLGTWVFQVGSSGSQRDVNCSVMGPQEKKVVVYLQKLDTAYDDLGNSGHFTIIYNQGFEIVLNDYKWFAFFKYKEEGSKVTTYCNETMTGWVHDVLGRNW
DPP1 of U937 cells, sequence (P53634 231-394): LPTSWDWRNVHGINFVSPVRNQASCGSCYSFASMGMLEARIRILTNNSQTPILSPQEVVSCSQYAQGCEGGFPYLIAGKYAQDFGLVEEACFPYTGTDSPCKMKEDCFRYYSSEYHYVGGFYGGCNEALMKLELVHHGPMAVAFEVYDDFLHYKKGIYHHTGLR
DPP1 of U937 cells, sequence (P53634 395-463): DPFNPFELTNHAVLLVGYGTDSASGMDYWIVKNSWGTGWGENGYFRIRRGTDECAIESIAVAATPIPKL

Compound | IC50 [1] [nM] | IC50 [2] [nM]
N#C[C@H](Cc1ccc(-c2ccc3cnn(C4CCOCC4)c3c2)cc1F)NC(=O)[C@@H]1CNCCCO1 [Compound 12] | 1.81 | 2.38
CN1CCC(n2ncc3ccc(-c4ccc(C[C@H](C#N)NC(=O)[C@@H]5CNCCCO5)c(F)c4)cc32)CC1 [Compound 24] | 3.12 | 1
CN1Cc2cc(-c3ccc(C[C@@H](C#N)NC(=O)[C@@H]4CNCCCO4)cc3)ccc2C1=O [Compound 5] | 9.32 | 28.3
CC(C)n1ncc2ccc(-c3ccc(C[C@@H](C#N)NC(=O)[C@@H]4CNCCCO4)cc3)cc21 [Compound 9] |  | 14
N#C[C@H](Cc1ccc(-c2ccc3nccn3c2)cc1F)NC(=O)[C@@H]1CNCCCO1 [Compound 13] | 6.33 | 20.4
Cn1nnc2ccc(-c3ccc(C[C@@H](C#N)NC(=O)[C@@H]4CNCCCO4)cc3)cc21 [Compound 4] | 1.32 | 10.8
Cn1nnc2ccc(-c3ccc(C[C@@H](C#N)NC(=O)[C@@H]4CNCCCO4)c(F)c3)cc21 [Compound 7] | 2.49 | 2.52
Cn1ncc2ccc(-c3ccc(C[C@@H](C#N)NC(=O)[C@@H]4CNCCCO4)cc3)cc21 [Compound 2] | 8.95 | 26.8
CC(C)n1ncc2ccc(-c3ccc(C[C@@H](C#N)NC(=O)[C@@H]4CNCCCO4)c(F)c3)cc21 [Compound 10] | 8.53 | 4.39

Further lines, results first:

IC50 [1] [nM] | IC50 [2] [nM] | Compound
 | 0.76 | N#C[C@@H](Cc1ccc(-c2ccc3cnn(C4CCNCC4)c3c2)cc1F)NC(=O)[C@@H]1CNCCCO1 [Compound 22]
2.79 | 28.1 | N#C[C@@H](Cc1ccc(-c2ccc3nccn3c2)cc1F)NC(=O)[C@@H]1CNCCCO1 [Compound 14]
9.27 | 17.3 | N#C[C@@H](Cc1ccc(-c2cnc3cc[nH]c3c2)cc1F)NC(=O)[C@@H]1CNCCCO1 [Compound 21]
 | 3.65 | CN1CCOc2ccc(-c3ccc(C[C@H](C#N)NC(=O)[C@@H]4CNCCCO4)c(F)c3)cc21 [Compound 15]
 | 9.18 | Cn1ncc2ccc(-c3ccc(C[C@H](C#N)NC(=O)[C@@H]4CNCCCO4)c(Cl)c3)cc21 [Compound 16]
5.43 | 1.23 | Cn1nc(F)c2ccc(-c3ccc(C[C@H](C#N)NC(=O)[C@@H]4CNCCCO4)c(F)c3)cc21 [Compound 18]
8.7 | 4.55 | N#C[C@@H](Cc1ccc(-c2cc(F)c3cn[nH]c3c2)cc1F)NC(=O)[C@@H]1CNCCCO1 [Compound 19]
 | 22.5 | Cc1cc(-c2ccc3cnn(C)c3c2)ccc1C[C@H](C#N)NC(=O)[C@@H]1CNCCCO1 [Compound 17]
